# Patent US20260297083A1, “SUBSTITUTED ACETYLENE COMPOUND DERIVATIVES AND THEIR PHARMACEUTICAL USE” (AVELOS THERAPEUTICS INC., priority 2023, published 2026)
# Test system: DLD-1 BRCA2(−/−) Cell
# Assay: Cell viability assay (Resazurin) in DLD1-BRCA2 cells
# Type: cell-based
# Conditions: Homo sapiens, DLD-1, 336 h, 14 days, 1,500 cells/well, final DMSO 1%
# How it was run: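 DLD1-BRCA2 KG cells seeded at 1,500/well (parental 600/well) in RPMI-1640 with 10% FBS, compound added after 4 h (1% DMSO), media replaced every 3-4 days over 14 days at 37° C. Viability read by resazurin (0.1 mg/ml, 4 h) fluorescence at Ex/Em 560/590 nm; IC50 fitted.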
row,SMILES,IC50
1,"Cc1cc(C(F)(F)F)cc(N2[C@H](C(=O)N(CC#Cc3cncc(C(=O)N4C[C@H](C)N[C@@H](C)C4)n3)c3ccc(F)c(C)c3)CCS2(=O)=O)n1 [Example 74, (S)-N-(3-(6-((3S,5S)-3,5-dimethylpiperazine-1-carbonyl)pyrazin-2-yl)prop-2-yn-1-yl)-N-(4-fluoro-3-methylphenyl)-2-(6-methyl-4-(trifluoromethyl)pyridin-2-yl)isothiazolidine-3-carboxamide 1,1-dioxide]",< 1000 nM
2,"Cc1cc(C(F)(F)F)cc(N2[C@H](C(=O)N(CC#Cc3cc(N4CCOCC4)ncn3)c3ccc(F)c(C)c3)CCS2(=O)=O)n1 [Example 75, (S)-N-(4-fluoro-3-methylphenyl)-2-(6-methyl-4-(trifluoromethyl)pyridin-2-yl)-N-(3-(6-morpholinopyrimidin-4-yl)prop-2-yn-1-yl)isothiazolidine-3-carboxamide 1,1-dioxide]",< 1000 nM
3,"Cc1cc(C(F)(F)F)cc(N2[C@H](C(=O)N(CC#Cc3cc(N4CCOCC4)nc(C(F)(F)F)n3)c3ccc(F)c(C)c3)CCS2(=O)=O)n1 [Example 76, (S)-N-(4-fluoro-3-methylphenyl)-2-(6-methyl-4-(trifluoromethyl)pyridin-2-yl)-N-(3-(6-morpholino-2-(trifluoromethyl)pyrimidin-4-yl)prop-2-yn-1-yl)isothiazolidine-3-carboxamide 1,1-dioxide]",< 1000 nM
4,"Cc1cc(C(F)(F)F)cc(N2[C@H](C(=O)N(CC#Cc3cnc(C(N)=O)nc3)c3ccc(F)c(C)c3)CCS2(=O)=O)n1 [Example 78, (S)-N-(3-(2-carbamoylpyrimidin-5-yl)prop-2-yn-1-yl)-N-(4-fluoro-3-methylphenyl)-2-(6-methyl-4-(trifluoromethyl)pyridin-2-yl)isothiazolidine-3-carboxamide 1,1-dioxide]",< 1000 nM
5,"Cc1cc(C(F)(F)F)cc(N2[C@H](C(=O)N(CC#Cc3nccc(N4CCOCC4)n3)c3ccc(F)c(C)c3)CCS2(=O)=O)n1 [Example 80, (S)-N-(4-fluoro-3-methylphenyl)-2-(6-methyl-4-(trifluoromethyl)pyridin-2-yl)-N-(3-(4-morpholinopyrimidin-2-yl)prop-2-yn-1-yl)isothiazolidine-3-carboxamide 1,1-dioxide]",< 1000 nM
6,"Cc1cc(C(F)(F)F)cc(N2[C@H](C(=O)N(CC#Cc3ncc(C(N)=O)cn3)c3ccc(F)c(C)c3)CCS2(=O)=O)n1 [Example 81, (S)-N-(3-(5-carbamoylpyrimidin-2-yl)prop-2-yn-1-yl)-N-(4-fluoro-3-methylphenyl)-2-(6-methyl-4-(trifluoromethyl)pyridin-2-yl)isothiazolidine-3-carboxamide 1,1-dioxide]",< 1000 nM

# Second part, the molecule after the results:
row,IC50,SMILES
1,< 1000 nM,"Cc1cc(C(F)(F)F)cc(N2[C@H](C(=O)N(CC#Cc3cnc(N4CCOCC4)nc3)c3ccc(F)c(C)c3)CCS2(=O)=O)n1 [Example 77, (S)-N-(4-fluoro-3-methylphenyl)-2-(6-methyl-4-(trifluoromethyl)pyridin-2-yl)-N-(3-(2-morpholinopyrimidin-5-yl)prop-2-yn-1-yl)isothiazolidine-3-carboxamide 1,1-dioxide]"
2,< 1000 nM,"Cc1cc(C(F)(F)F)cc(N2[C@H](C(=O)N(CC#Cc3ncc(N4CCOCC4)cn3)c3ccc(F)c(C)c3)CCS2(=O)=O)n1 [Example 79, (S)-N-(4-fluoro-3-methylphenyl)-2-(6-methyl-4-(trifluoromethyl)pyridin-2-yl)-N-(3-(5-morpholinopyrimidin-2-yl)prop-2-yn-1-yl)isothiazolidine-3-carboxamide 1,1-dioxide]"
3,< 1000 nM,"Cc1cc(C(F)(F)F)cc(N2[C@H](C(=O)N(CC#Cc3ncc(C(=O)N4CCOCC4)cn3)c3ccc(F)c(C)c3)CCS2(=O)=O)n1 [Example 82, (S)-N-(4-fluoro-3-methylphenyl)-2-(6-methyl-4-(trifluoromethyl)pyridin-2-yl)-N-(3-(5-(morpholine-4-carbonyl)pyrimidin-2-yl)prop-2-yn-1-yl)isothiazolidine-3-carboxamide 1,1-dioxide]"
